The conditions of data set [1]: in water, prior art literature value; cited from earlier work.
Data set [2] deals with BL21 E. coli. Put plainly: In vitro BL21 E. coli growth inhibition in aerobic conditions, visible light versus dark. The following applies: growth recorded after 48 hours. It is filed as cell-based. As to the method: Method to assess bacteria inhibition examined in vitro effects with BL21 E. coli. […] Prior art procedure reported in Photochemistry and Photobiology 2010, 86 (4), 890-894 was followed to grow E. coli cells, even though other prior art procedures can be used. BL21 was selected because of availability. […] Luria Broth (LB)-Lennox formulation were allowed to grow in an incubator at 28° C. shaking at 250 rpm until the beginning of their exponential growth phase (A600=0.2). For each experiment, one milliliter of the E. coli solution was centrifuged and washed with sterile water once. After removing washing liquid, the E. coli solutions were then re-suspended in 500.0 μL of sterile water and 200 μL of stock solutions of each of the following were added: (a) DHN (4.2×10^−44.20×10^−4 M), (b) Juglone (4.2×10^−44.20×10^−4 M), (c) Fe(III) (3.5×10^−4 M) and TMPyP (2.1×10^−52.10×10^−5 M), (d) DHN (4.2×10^−44.20×10^−4 M) and TMPyP (2.1×10^−52.10×10^−5 M), (e) Fe(III) (3.5×10^−4M), DHN (4.2×10^−4 M) and TMPyP (2.1×10^−5 M), (f) Fe(III) (3.5×10^−4 M), Juglone (4.2×10^−4 M) and TMPyP (2.1×10^−5 M), and TMPyP (2.1×10^−5).
Controls of each sample were prepared similarly and kept covered to assure that no light was reacted with the TMPyP while other samples were irradiated in a Rayonet photoreactor for 10 minutes. After irradiation, the 700.0 μL samples were briefly vortexed and then 20.0 μL of each sample was spread evenly over individual petri dishes containing LB agar. The plates were inverted, then incubated at 28° C. for 48 hours.
A “light versus dark” comparison study was performed by introducing treatment composition into two equal concentrations of E. coli bacteria solutions, one E. coli solution was kept in dark while other was irradiated with visible light.
As part of the test, a comparison study, including “light versus dark” was performed of treatment composition (FIG. 22E Fe(III) (3.5×10^−4 M), DHN (4.2×10^−4M) and TMPyP (2.1×10^−5 M), versus FIG. 22A DHN (4.2×10^−4 M), FIG. 22B Juglone (4.2×10^−4 M), FIG. 22C Fe(III) (3.5×10^−4 M) and TMPyP (2.1×10^−5 M), FIG. 22D DHN (4.2×10^−4 M) and TMPyP (2.1×10^−5 M), and FIG. 22F Fe(III) (3.5×10^−4 M), Juglone (4.2×10^−4 M) and TMPyP (2.1×10^−5 M).

Data set [3] relates to BL21 E. coli. Put plainly: In vitro BL21 E. coli growth inhibition in hydrogen peroxide rich environment under dark conditions. It is filed as cell-based. The following applies: alone at the experimental concentration (Fe(III) 1.0×10^−4 M or 1.0×10^−3 M; 400 μM H2O2). How it is done:
To determine utility for treatment of bacteria of the claimed treatment compositions in an aqueous H2O2 rich environment (typical tumor environment), E. coli bacteria were mixed with the treatment composition in the presence of H2O2 in dark conditions under normal room temperature and pressure. […] A series of control reactions were carried out to see if alone, any of Fe(III) ions with 1.0×10^−4 M concentration (FIG. 23A) or Fe(III) ions with 1.0×10^−3 M concentration (FIG. 23B) or 400 μM H2O2 (FIG. 23C) can inhibit the growth of E. coli bacteria under identical reaction conditions.

A short description of data set [4]: Photooxidation of DHN under visible light irradiation in aerobic solution, DHN absorption monitored at 301 nm. As to conditions: for Rate, first order rate constant of DHN photooxidation: aerobic conditions, visible light, acetonitrile:water (6:4). As to the method: For a typical experiment, microliter amounts of standard solutions were combined, for illustration not limitation, microliter amounts of a standard solution of Fe(III) solutions (30 μL of 1.0×10^−2 M) and DHN solution (36 μL of 1.0×10^−2 M) added into a cuvette containing 3 mL of solution TMPyP (6.00×10^−6 M). Quartz cuvettes with 1 cm path-length and 3 mL volume were used for all measurements.
For singlet oxygenation of 1,5-dihydroxynaphthalene (DHN) by TMPyP in aqueous solution, a 3 mL solution of DHN (1.2×10^−4 M) and TMPyP (6.0×10^−6 M) was prepared by mixing 36 μL of 1×10^−2 M of DHN standard solution and 18 μL of 1×10^−3 M of TMPyP standard solution with ultrapure water. The solution was prepared at room temperature in an open atmosphere. Photooxygenation of samples was performed in a Rayonet photoreactor and monitored by recording a decrease of UV-vis absorption. For example, photoxygenation of DHN by TMPyP was performed in a Rayonet photoreactor for approximately twenty minutes at 28° C. and the photooxygenation of DHN was monitored by recording a decrease of UV-vis absorption of DHN at 301 nm for 20 minutes in 2 minutes intervals. The effect of metal ions on singlet oxygen generation was studied similarly except with the addition of microliter amounts of M^2+ or M^3+ ions (1×10^−2 M) (positively charged cations with a +2 charge or a +3 charge) into a DHN/TMPyP aqueous solution.

A short description of data set [5]: Photooxidation of DHN under visible light irradiation in anaerobic (argon purged) solution, DHN absorption monitored at 301 nm. As to conditions: for Photooxidation of DHN (in words): anaerobic; for Rate, first order rate constant of DHN photooxidation: anaerobic conditions, visible light, acetonitrile:water (6:4). As to the method: First, the treatment composition (DHN+TMPyP+Fe(III)) was compared against commercially available Fe(III)TMPyP and prepared TMPyP+Fe(II), all in presence of DHN, to determine if any or all can produce hydroxyl radical (OH) in anaerobic condition. An aqueous solution of TMPyP and DHN was thoroughly purged with argon followed by irradiation with visible light. DHN's absorption at 301 nm was recorded in 2 minute intervals to monitor in situ production of OH in solution.

The conditions of data set [6]: aqueous solution, 655 nm CW laser, calculated with Equation 1.
Procedure: Singlet Oxygen Quantum Yield (ΦΔ) of TMPyP was determined using DHN (1.2×10^−4 M) as a singlet oxygen quencher and methylene blue (MB) as a reference standard. A 3 mL solution of TMPyP (6.0×10^−6 M) solution and MB (1.0×10^−5 M) solution both of which contain DHN (1.2×10^−4 M) were prepared. Each solution was irradiated with a 655 nm CW laser and the UV-vis spectrum of each solution was recorded at 1 min intervals for 5 minutes. The quantum yields were calculated with Equation 1 by using ΦΔ(s) of MB (ΦΔ=0.52) reported in the prior art.
[formula] In Equation 1, S is the slope of the plot of the absorbance versus irradiation, and F is the absorption correction factor.
To determine the efficiency of TMPyP for singlet oxygen generation in aqueous solution, ^1O2 quantum yield (ΦΔ) was calculated by using methylene blue as a standard with a known ΦΔ of 0.52. […] Most importantly, the reaction of DHN and ^1O2 can be monitored by observing gradual decrease of the absorption of DHN peaks from 295 nm to 355 nm and so DHN can be used as a ^1O2 probe for ^1O2 quantum yield (ΦΔ) measurement.
Above cited Equation 1 was followed to calculate ^1O2 quantum yield (ΦΔ) for TMPyP, where S is the slope of the plot of the absorbance versus irradiation, and F is the absorption correction factor.
For data set [7] the following is noted: aqueous solution 6.0×10^−6 M, excitation 423 nm, calculated with Equation 3.
Procedure: For fluorescence study, three solutions of 3 mL volume were prepared. Study solution 1 (aqueous solution of TMPyP) was prepared by mixing 18 μL of 1.0×10^−3 M TMPyP with ultrapure water. Study solution 2 (aqueous solution of TMPyP and Fe(III) ions) was made by mixing 18 μL of 1.0×10^−3 M TMPyP and 30 μL of 1.0×10^−2 M iron(III) chloride with ultrapure water. Study solution 3 (aqueous solution of TMPyP and DHN) was prepared by mixing 18 μL of 1.0×10^−3 M TMPyP and 36 μL of 1.0×10^−2 M DHN with ultrapure water. Fluorescence emission was measured upon excitation of each solution at 423 nm with an excitation slit width of 10.0 nm and an emission slit width of 12.0 nm. Each experiment was carried out at room temperature and under normal atmospheric conditions.
Crystal violet (1.0×10^−5 M) with a known ΦF=0.020 in water was used as a standard.
Then the fluorescence quantum yield (ΦF) of TMPyP was calculated by using Equation 3 and crystal violet (1.0×10^−5 M) as a standard with ΦF=0.020 in water, fluorescence quantum yield known from the prior art.
[formula] where in Equation 3, A is the absorbance, F represents the area under the emissions curve, and n is the refractive index of the solvent used.
For data set [8] the following is noted: reported in the prior art; cited from earlier work.
Setting [9] is: irradiated with visible light 10 minutes.

Molecules are shown by their SMILES. Several values for one entry are separate records, joined by “and”; a condition that tells them apart may be missing. Identical values can stand only once.

Turning to `CN(C)c1ccc(C(=C2C=CC(=[N+](C)C)C=C2)c2ccc(N(C)C)cc2)cc1` [Crystal violet], the “Fluorescence quantum yield (ΦF), prior art” value in data set [1] was 0.020.

For `Oc1cccc2c(O)cccc12` [DHN, 1,5-dihydroxynaphthalene], the “Inhibition of E. coli growth” value is on record as “very marginal inhibition effect” in data set [2] (setting [9]) and “almost no inhibition” in data set [2] (kept in dark).

With `[Cl][Fe]([Cl])[Cl]` [Fe(III) ions, iron (III) chloride], the “Inhibition of growth of E. coli, control alone” value in data set [3] is given as “No noticeable inhibition”.

As to `C[n+]1ccc(C2=C3C=CC(=N3)C(c3cc[n+](C)cc3)=c3ccc4[n]3[Fe+][n]3c2ccc3C(c2cc[n+](C)cc2)=C2C=CC(=N2)C=4c2cc[n+](C)cc2)cc1` [Fe(III)TMPyP, Fe(III) bound meso-tetrakis(N-methyl-4-pyridyl) porphyrin], the “Rate constant of photooxidation of DHN” value in data set [4] (aerobic aqueous environment, FIG. 11) is 4.67e-05 s⁻¹. For the same compound, the “Rate Constant, kobs, of DHN decay kinetics” value in data set [4] (aerobic aqueous solution as printed, DHN 1.2×10^−4 M, porphyrin 6.0×10^−6 M, iron 1.0×10^−4 M, 301 nm) is 5.5e-05 s⁻¹. Also, the “Rate constant k of photo-oxidation of DHN” value in data set [5] (anaerobic aqueous environment, FIG. 12) worked out at 5.5e-05 s⁻¹.

With `OO` [H2O2, hydrogen peroxide], the “Inhibition of growth of E. coli, control alone” value in data set [3] is on record as “No noticeable inhibition”.

For `O=C1C=CC(=O)c2c(O)cccc21` [Juglone, 5-hydroxy-1,4-naphthalenedione], the “Inhibition of E. coli growth” value in data set [2] (setting [9]) and in data set [2] (kept in dark) was “complete inhibition” throughout.

As to `C[n+]1ccc(-c2c3nc(c(-c4cc[n+](C)cc4)c4ccc([nH]4)c(-c4cc[n+](C)cc4)c4nc(c(-c5cc[n+](C)cc5)c5ccc2[nH]5)C=C4)C=C3)cc1.[Cl-].[Cl-].[Cl-].[Cl-]` [TMPyP, meso-tetra(N-methyl-4-pyridyl) porphine tetrachloride], the “Singlet oxygen quantum yield (ΦΔ)” value in data set [6] is recorded as 0.503. Also, the “Maximum rate of photooxidation of DHN by TMPyP (k)” value in data set [4] (aerobic, Fe(III) ions about 50 μL of 1.0×10^−2 M) is 0.000943 s⁻¹. Further, in data set [4] (aerobic, metal free solution), the “Rate constant of DHN photooxidation by TMPyP” value is 0.000658 s⁻¹. The “Rate of photooxidation of DHN by TMPyP (k)” value is 0.00039 s⁻¹ in data set [4] (aerobic, upon addition of 10 μL of 1.0×10^−3 M of Fe(III) ions) and 0.000568 s⁻¹ in data set [4] (aerobic, upon addition of 75 μL of 1.0×10^−2 M of Fe(III) ions). Moreover, the “Fluorescence quantum yield (ΦF)” value in data set [7] is 0.0139. Further, the “Singlet oxygen quantum yield (ΦΔ), prior art” value in data set [8] was 0.58 and 0.74 and 0.9. In data set [1], the “Fluorescence quantum yield (ΦF), prior art” value is reported as 0.016. The “Photooxidation of DHN (in words)” value is listed as “negligible photooxidation” in data set [5] (absence of Fe(III) ions, FIG. 13) and “substantial photooxidation” in data set [5] (presence of Fe(III) ions, FIG. 14).

In the case of `CN(C)c1ccc2nc3ccc(=[N+](C)C)cc-3sc2c1` [methylene blue], in data set [8], the “Singlet oxygen quantum yield (ΦΔ), prior art” value was 0.52.

Regarding `Oc1cccc(-c2c3nc(c(-c4cccc(O)c4)c4ccc([nH]4)c(-c4cccc(O)c4)c4nc(c(-c5cccc(O)c5)c5ccc2[nH]5)C=C4)C=C3)c1` [m−THP, meso-tetra(m-hydroxyphenyl)porphine], the “Rate, first order rate constant of DHN photooxidation” value was 0.0012 s⁻¹ in data set [4] and 4e-05 s⁻¹ in data set [5].

With `Oc1ccc(-c2c3nc(c(-c4ccc(O)cc4)c4ccc([nH]4)c(-c4ccc(O)cc4)c4nc(c(-c5ccc(O)cc5)c5ccc2[nH]5)C=C4)C=C3)cc1` [p−THP, meso-tetra(p-hydroxyphenyl)porphine], the “Rate, first order rate constant of DHN photooxidation” value in data set [4] turned out to be 0.0008 s⁻¹; in data set [5], 2e-05 s⁻¹.

The values above are taken from patent US11324826B2, “Multifunctional treatment and diagnostic compositions and methods” (priority 2018, dated 2022).
